Experimental data reported in patent US9505798B2, “Steroid compounds as RORyt modulators and uses thereof” (New York University, priority 2010, dated 2016).

Tests used:
[1] = molecular target: T1, DHR3 (Drosophila melanogaster, UniProt P31396); test: S2 cell DHR3 luciferase reporter; format: cell-based; conditions: 10 μM, FIG. 1c
T1 construct: Drosophila DHR3 (amino acids 120 to end); expressed in transfected cells
Excerpt: The Drosophila S2 cell line was originally purchased from Invitrogen and was maintained in Schneider's medium supplemented with 10% heat-inactivated bovine fetal calf serum and antibiotics (Invitrogen). Gal4 DNA binding domain (G4 DBD) corresponding to amino acids 1 through 147 of Gal4 protein was PCR amplified to make a fusion construct with mouse RORγt (amino acids 79 to the carboxyl terminal end) lacking its DNA binding domain. The resulting chimeric gene was subcloned into the copper inducible pMT/V5-His A vector (Invitrogen). In a similar manner, Gal4 fusion constructs were prepared with mouse RORα (amino acids 142 to end) or Drosophila DHR3 (amino acids 120 to end). Coding sequences for firefly luciferase (Promega) were PCR amplified and subcloned into pUAST vector containing Gal4 binding enhancer sequences. Renilla luciferase construct under the polIII promoter was obtained from Dr. Dasgupta's laboratory (NYU medical center). In order to generate stable cell lines, cells were co-transfected with pMT-G4 DBD-RORγt, pMT-G4 DBD-RORα, pMT-G4 DBD-DHR3, or pMT-G4 DBDVP16 and pHygro plasmids (Invitrogen) and screened for resistant colonies in the presence of hygromycin (0.3 mg/mL). […]

[2] = system: aryl hydrocarbon receptor (AHR); test: AHR ligand FICZ effect on RORα-dependent IL-17a expression; format: cell-based, mouse; conditions: FICZ added

T1 sequence (P31396 120-487 limits assumed): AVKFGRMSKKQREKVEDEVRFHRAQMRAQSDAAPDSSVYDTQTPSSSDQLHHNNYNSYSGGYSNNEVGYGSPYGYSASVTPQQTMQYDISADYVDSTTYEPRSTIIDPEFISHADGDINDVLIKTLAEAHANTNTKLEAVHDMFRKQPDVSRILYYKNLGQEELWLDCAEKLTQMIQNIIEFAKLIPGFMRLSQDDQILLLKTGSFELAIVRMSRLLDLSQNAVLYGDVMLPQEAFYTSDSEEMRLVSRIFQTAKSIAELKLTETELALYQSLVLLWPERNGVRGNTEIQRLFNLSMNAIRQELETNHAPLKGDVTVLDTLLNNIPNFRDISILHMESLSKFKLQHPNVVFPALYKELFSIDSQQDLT

With `C[C@H]1O[C@@H](O[C@H]2[C@@H](O)C[C@H](O[C@H]3[C@@H](O)C[C@H](O[C@H]4CC[C@@]5(C)[C@H](CC[C@@H]6[C@@H]5C[C@@H](O)[C@]5(C)[C@@H](C7=CC(=O)OC7)CC[C@]65O)C4)O[C@@H]3C)O[C@@H]2C)C[C@H](O)[C@@H]1O` [Digoxin] the “effect on transcriptional activity of DHR3” value [1] was “no effect” and the AHR activity [2] was “unaffected”.
